Data taken from ChEMBL document CHEMBL2424540, “Synthesis and pharmacological evaluation of novel 1-(piperidin-4-yl)-1H-benzo[d]imidazol-2(3H)-one derivatives as potential antimicrobial agents” (2013).

Tests used:
Type in all cases: functional
Aspergillus clavatus = assay: Antifungal activity against Aspergillus clavatus MTCC 1323 at 50 mg/ml after 24 hrs by disk agar diffusion technique; conditions: MTCC 1323, 24 h, read-out: DIZ
Candida albicans = assay: Antifungal activity against Candida albicans MTCC 227 at 50 mg/ml after 24 hrs by disk agar diffusion technique; conditions: MTCC 227, 24 h, read-out: DIZ
Pseudomonas aeruginosa = assay: Antibacterial activity against Pseudomonas aeruginosa MTCC 424 at 50 mg/ml after 24 hrs by disk agar diffusion technique; conditions: MTCC 424, 24 h, read-out: DIZ
Escherichia coli = assay: Antibacterial activity against Escherichia coli MTCC 443 at 50 mg/ml after 24 hrs by disk agar diffusion technique; conditions: MTCC 443, 24 h, read-out: DIZ
Streptococcus pyogenes = assay: Antibacterial activity against Streptococcus pyogenes MTCC 442 at 50 mg/ml after 24 hrs by disk agar diffusion technique; conditions: MTCC 442, 24 h, read-out: DIZ
Staphylococcus aureus = assay: Antibacterial activity against Staphylococcus aureus MTCC 96 at 50 mg/ml after 24 hrs by disk agar diffusion technique; conditions: MTCC 96, 24 h, read-out: DIZ

Compound | zone of inhibition at 50000 µg/mL (Aspergillus clavatus) | zone of inhibition at 50000 µg/mL (Candida albicans) | zone of inhibition at 50000 µg/mL (Pseudomonas aeruginosa) | zone of inhibition at 50000 µg/mL (Escherichia coli) | zone of inhibition at 50000 µg/mL (Streptococcus pyogenes) | zone of inhibition at 50000 µg/mL (Staphylococcus aureus)
CCOC(=O)Cn1c(=O)n(C2CCN(C3CCc4cc(OC)c(OC)cc43)CC2)c2ccc(Cl)cc21 (centres undefined) | 14 mm | 15 mm | 11 mm | 12 mm | 16 mm | 14 mm
CCOC(=O)n1c(=O)n(C2CCN(C3CCc4cc(OC)c(OC)cc43)CC2)c2ccc(Cl)cc21 (centres undefined) | 21 mm | 7 mm | 13 mm | 15 mm | 14 mm | 11 mm
CCN(CC)C(=O)n1c(=O)n(C2CCN(C3CCc4cc(OC)c(OC)cc43)CC2)c2ccc(Cl)cc21 (centres undefined) | 11 mm | 10 mm | 8 mm | 13 mm | 11 mm | 20 mm
COc1cc2c(cc1OC)C(N1CCC(n3c(=O)n(CCCl)c4cc(Cl)ccc43)CC1)CC2 (centres undefined) | 13 mm | 17 mm | 11 mm | 10 mm | 16 mm | 18 mm
COc1cc2c(cc1OC)C(N1CCC(n3c(=O)n(CCCN(C)C)c4cc(Cl)ccc43)CC1)CC2 (centres undefined) | 10 mm | 18 mm | 16 mm | 14 mm | 18 mm | 13 mm
COCn1c(=O)n(C2CCN(C3CCc4cc(OC)c(OC)cc43)CC2)c2ccc(Cl)cc21 (centres undefined) | 15 mm | 24 mm | 15 mm | 14 mm | 13 mm | 10 mm
COc1cc2c(cc1OC)C(N1CCC(n3c(=O)n(Cc4ccccc4)c4cc(Cl)ccc43)CC1)CC2 (centres undefined) | 17 mm | 25 mm | 13 mm | 11 mm | 10 mm | 11 mm
COc1cc2c(cc1OC)C(N1CCC(n3c(=O)n(Cc4ccc(Cl)cc4)c4cc(Cl)ccc43)CC1)CC2 (centres undefined) | 19 mm | 16 mm | 9 mm | 19 mm | 9 mm | 17 mm
COc1cc2c(cc1OC)C(N1CCC(n3c(=O)n(Cc4ccc([N+](=O)[O-])cc4)c4cc(Cl)ccc43)CC1)CC2 (centres undefined) | 22 mm | 17 mm | 10 mm | 17 mm | 11 mm | 13 mm
CC1(C)S[C@@H]2[C@H](NC(=O)[C@H](N)c3ccccc3)C(=O)N2[C@H]1C(=O)O [AMPICILLIN] |  |  | 20 mm | 20 mm | 19 mm | 18 mm
O=C(N[C@H](CO)[C@H](O)c1ccc([N+](=O)[O-])cc1)C(Cl)Cl [CHLORAMPHENICOL] |  |  | 21 mm | 23 mm | 20 mm | 21 mm
OC(Cn1cncn1)(Cn1cncn1)c1ccc(F)cc1F [FLUCONAZOLE] | 24 mm | 24 mm |  |  |  | 
